Reference: patent US20130190514A1, “PHENYLALKYL N-HYDROXYUREAS FOR TREATING LEUKOTRIENE RELATED PATHOLOGIES” (TALLIKUT PHARMACEUTICALS, INC., priority 2010, published 2013)

What was measured:
leukotriene B4 (LTB4) = assay: Ex vivo LTB4 in blood by ELISA, Phase 2 ACS study; set-up: species or system human; details: trough drug levels
Experimental: (§1) In this randomized, placebo-controlled study, 191 patients were randomized 3 weeks after an acute coronary syndrome (ACS) to receive 25, 50, or 100 mg N-[3-[5-[(4-fluorophenyl)methyl]-2-thienyl]-1-methyl-2-propynyl]-N-hydroxyurea or placebo qd for 12 weeks. Baseline assessments were performed at the start of treatment and these baseline results were compared with repeat assessments during various follow-up periods during the treatment study. A subset of 93 patients who had undergone a Multidetector (64 slice coronary) Computerized Tomography (MDCT) examination at baseline continued on study medication for a total of 24 weeks and underwent a repeat scan. Patients received a single daily oral dose of 25 mg, 50 mg, or 100 mg of N-[3-[5-[(4-fluorophenyl)methyl]-2-thienyl]-1-methyl-2-propynyl]-N-hydroxyurea or matching placebo by administering 2 capsules as prepared in Example 3 for 12 weeks or 24 weeks. Blood samples for measurement of ex vivo leukotriene B4 (LTB4) and high sensitivity C reactive protein (hsCRP), and urine samples for measurement of urinary leukotriene E4 (LTE4) levels were collected pre-dose on weeks 2, 6 and 12. Blood samples were assayed for ex vivo LTB4 by enzyme-linked immunosorbent assay, and for hsCRP by an immunoturbidimetric method. Urine samples were assayed for LTE4 using Liquid Chromatography with Tandem Mass Spectrometry (LC/MS/MS).

leukotriene E4 (LTE4) = assay: Urinary LTE4 by LC/MS/MS, Phase 2 ACS study; type: in vivo, human; details: all doses (25, 50, 100 mg qd)
Experimental: as §1

[1] = system: high sensitivity C reactive protein (hsCRP); assay: hsCRP in blood by immunoturbidimetric method, Phase 2 ACS study; type: in vivo, human
Experimental: as §1

non-calcified plaque = assay: Coronary plaque by MDCT (64-slice CT), Phase 2 ACS study, 24-week substudy; type: in vivo, human; details: all three doses, serial MDCT images at 24 weeks
Experimental: In this randomized, placebo-controlled study, 191 patients were randomized 3 weeks after an acute coronary syndrome (ACS) to receive 25, 50, or 100 mg N-[3-[5-[(4-fluorophenyl)methyl]-2-thienyl]-1-methyl-2-propynyl]-N-hydroxyurea or placebo qd for 12 weeks. Baseline assessments were performed at the start of treatment and these baseline results were compared with repeat assessments during various follow-up periods during the treatment study. A subset of 93 patients who had undergone a Multidetector (64 slice coronary) Computerized Tomography (MDCT) examination at baseline continued on study medication for a total of 24 weeks and underwent a repeat scan. For those patients who continued on study medication for a total of 24 weeks, contrast-enhanced CT examination was performed at baseline and after 24 weeks of treatment with a 64-slice scanner (GE LightSpeed VCT; GE Healthcare, USA). Target plaque lesions were defined prospectively as non-calcified plaque with measurable low-density components of <60 HU situated in the proximal or middle portion of either the left main, left anterior ascending, left circumflex or right coronary artery causing at least 20% luminal stenosis. Prior to analysis of results, patients had their MDCT examinations evaluated twice by the same reviewer and also by a second reviewer for evaluation of intraobserver and interobserver variability of measurements.

[2] = system: inflammatory genes, including IL-6, IL 8, IL-10, MMP9, I-kappa-B, osteopontin; assay: Inflammatory gene expression in carotid plaques (TaqMan), Phase 2 CEA study; type: in vivo, human; details: rupture-prone plaque subtypes, 100 mg qd oral, 12 weeks
Experimental: In this randomized, double blind, placebo-controlled study, 50 patients with significant carotid artery stenosis (60-90%) were treated once daily for 12 weeks with orally administered 100 mg N-[3-[5-[(4-fluorophenyl)methyl]-2-thienyl]-1-methyl-2-propynyl]-N-hydroxyurea or placebo prior to undergoing CEA, at which time endarterectomy tissue (plaque) was collected and stored for subsequent tissue analysis. Baseline assessments are performed at the start of treatment and these baseline results were compared with repeat assessments during various follow-up periods of treatment. The treatment was conducted for twelve weeks at which time these baseline assessments were performed and compared.
At the end of 12 weeks treatment with 100 mg of N-[3-[5-[(4-fluorophenyl)methyl]-2-thienyl]-1-methyl-2-propynyl]-N-hydroxyurea, patients underwent CEA, at which time endarterectomy tissue (plaque) was collected, fixed in 10% formalin and paraffin blocks, and stored for subsequent tissue analysis. […] A portion of each of the plaques was also analyzed for inflammatory gene expression after isolation of total RNA and reverse transcription using a TaqMan® High Capacity cDNA assay.
LTB4, LTE4 and hsCRP biomarker data were assessed using change from baseline comparisons and an ANCOVA was used to compare the treatment groups where the covariate was the baseline value of the outcome measure. […]

Q: CC(C#Cc1ccc(Cc2ccc(F)cc2)s1)N(O)C(N)=O (centres unmarked) [VIA-2291, N-[3-[5-[(4-fluorophenyl)methyl]-2-thienyl]-1-methyl-2-propynyl]-N-hydroxyurea] was tested. Which “inhibition of ex vivo LTB4” value (leukotriene B4 (LTB4); 100-mg group, in >90% of patients) did it give?
A: Its value is “approximately 80%”.

Q: And the “ex vivo leukotriene LTB4” value (leukotriene B4 (LTB4); all doses (25, 50, 100 mg qd), P<0.0001, dose-dependent)?
A: The value was “significantly reduced”.

Q: What about the “urinary leukotriene LTE4” value (leukotriene E4 (LTE4)) of the same compound?
A: Its value is “significantly reduced”.

Q: What about the “hsCRP within group between 12 and 24 weeks” value ([1]; 100 mg group, P<0.01) of the same compound?
A: The value was “significant reduction”.

Q: And the “decrease in hsCRP compared with placebo” value ([1]; 100-mg group at 24 weeks, P=0.0002)?
A: The value was 67%.

Q: What about the “new plaque lesions compared with placebo” value (non-calcified plaque) of the same compound?
A: Its value is “reduced”.

Q: And the “non-calcified plaque volume compared with placebo” value (non-calcified plaque)?
A: The value was “reduced”.

Q: What about the “expression of inflammatory genes, including IL-6, IL 8, IL-10, MMP9, I-kappa-B, osteopontin” value [2] of the same compound?
A: Its value is “reduction in expression”.
